From patent US11053201B2, “Crystalline forms” (SYNGENTA PARTICIPATIONS AG, priority 2018, dated 2021)

Assays:
[1] = temperature cycling test of FS200 flowable concentrate for seed treatment formulations, analysed under a microscope (40×) for crystal growth; assay type: physicochemical; details: for crystal growth: FS formulation
Procedure: As mentioned previously, it is crucial for the successful application of an agrochemical and/or pharmaceutical formulation that the crystalline form is stable in the particular formulation environment. Flowable concentrates for seed treatment (FS) formulations were prepared for both Form A and Form B. The only difference between the two formulations was the polymorphic form used, all of the other components were identical. The formulations were analyzed under a microscope (40×) for possible crystal growth which can have detrimental consequences such as thickening and potentially solidification of the formulation which can in turn lead to blockages in application equipment, e.g. in seed coating equipment or in spray nozzles in agricultural application machinery. Pictures were taken of the formulations at (i) start (FIGS. 13a and 14a), (ii) immediately after the temperature cycling test (FIGS. 13b and 14b) and (iii) two days at room temperature (RT) after the temperature cycling test (FIGS. 13c and 14c). The pictures are shown for the formulation comprising Form A in FIGS. 13a, 13b and 13c and the pictures for the formulations comprising Form B in FIGS. 14a, 14b and 14c. […] The recipe used is given in Table 8: The above formulations were tested for stability in a temperature cycling test as shown in FIG. 12. The formulations were then analyzed under the microscope (40×) to check for possible stability issues, in particular crystal growth and pictures were taken.

[2] = chemical stability of the polymorphic forms in the formulations tested; details: in the FS formulations tested
[3] = at start, before the temperature cycling test, microscope 40× (FIGS. 13a, 14a)
[4] = immediately after the temperature cycling test, microscope 40× (FIGS. 13b, 14b)
[5] = two days at room temperature after the temperature cycling test, microscope 40× (FIGS. 13c, 14c)

Row | crystal growth [1, 3] | crystal growth [1, 4] | crystal growth [1, 5] | chemical stability (compound degradation) [2] | resistance to crystal growth ([1]; when exposed to typical storage conditions) | Compound
1 | did not exhibit any crystal growth | clear crystal growth | even further crystal growth |  |  | O=C(N[C@H]1CC[C@H]1c1ccc(Cl)cc1Cl)c1cccnc1C(F)(F)F [Form A, N-[(1S,2S)-2-(2,4-dichlorophenyl)cyclobutyl]-2-(trifluoromethyl) pyridine-3-carboxamide]
2 | did not exhibit any crystal growth | no such crystal growth | no such crystal growth | no compound degradation was observed | surprisingly resistant to crystal growth | O=C(N[C@H]1CC[C@H]1c1ccc(Cl)cc1Cl)c1cccnc1C(F)(F)F [Form B, (1S,2S) N-[2-(2,4-dichlorophenyl)cyclobutyl]-2-(trifluoromethyl)pyridine-3-carboxamide]
